Data set [1] relates to cerebral edema induced triethyltin (TET) chloride. Conditions: administered during the intoxication, measured after 5 days (Linee et al., 1984); cited from earlier work.
For data set [2], the system named is ambulatory activity disrupted by triethyltin (TET). As to conditions: for Ambulatory activities: no TET.
Data set [3] is classed as in vivo, rat.
In data set [4] the test system is cerebral oedema induced by triethyltin (TET). As to conditions: rat, in vivo.
Setting [5] is: moclobemide 2 × 50 mg/kg/day + TET 3 mg/kg/day, day 4.
Where [6] appears, read: moclobemide 2 × 50 mg/kg/day + TET 3 mg/kg/day, day −3, before any treatment.
Setting [7] is: moclobemide 2 × 50 mg/kg/day, TET 0, day 4.
Setting [8] is: moclobemide 2 × 50 mg/kg/day, TET 0, day −3, before any treatment.
[9] abbreviates: moclobemide 2×100 mg/kg/day + TET.
The mark [10] stands for this setting: moclobemide 2 × 100 mg/kg/day + TET 3 mg/kg/day, day 4.
Where [11] appears, read: moclobemide 2 × 100 mg/kg/day + TET 3 mg/kg/day, day −3, before any treatment.

Read-outs that look alike come from different tables or passages of the source.

Here are results for four molecules from patent publication US8420644B2, “Pharmaceutical composition intended for the prevention or for the treatment of cerebral oedemas” (Biocodex, priority 2005, dated 2013).

On to `CC[C@]12CCCN3CCc4c(n(c5ccccc45)[C@@](O)(C(=O)OC)C1)[C@@H]32` [vincamine], for which, in data set [1], the “Activity in the preventive protocol of intoxication with tin” value (“Activity in the preventive protocol” for short) is “active”.

Consider dihydroergotoxin, for which, in data set [1], the “Activity in the preventive protocol” value is reported as “active”.

As to moclobemide, the “Effect of TET on the ambulatory activities” value in data set [2] (moclobemide 2×50 mg/kg/day + TET) and in data set [2] (setting [9]) was “does not suppress the effect of TET” each time. The “Horizontal ambulatory activity (means ± esm)” value in data set [2] (setting [5]) is 474 ± 70 arbitrary unit; in data set [2] (setting [6]) it was 2319 ± 248 arbitrary unit; in data set [2] (setting [7]), 1483 ± 163 arbitrary unit; in data set [2] (setting [8]), 2754 ± 415 arbitrary unit; in data set [2] (setting [10]), 497 ± 139 arbitrary unit; in data set [2] (setting [11]), 2549 ± 221 arbitrary unit. In addition, the “Total ambulatory activity (means ± esm)” value is 844 ± 88 arbitrary unit in data set [2] (setting [5]); 3001 ± 314 arbitrary unit in data set [2] (setting [6]); 2000 ± 224 arbitrary unit in data set [2] (setting [7]); 3840 ± 323 arbitrary unit in data set [2] (setting [8]); 3332 ± 235 arbitrary unit in data set [2] (setting [11]). For the same molecule, the “Vertical ambulatory activity (means ± esm)” value in data set [2] (setting [6]) is 279 ± 37 arbitrary unit; in data set [2] (setting [11]) it was 279 ± 27 arbitrary unit. Moreover, the Ambulatory activities entry in data set [2] (moclobemide 2×50 mg/kg/day for 5 days) is given as “does not lead to any significant effect on the ambulatory activities”; in data set [2] (moclobemide 2×100 mg/kg/day, day 4) it was “significantly decreases the ambulatory activities at day 4”. Also, the “Body weight (grammes ± esm)” value stood at 245 ± 3 grammes in data set [3] (moclobemide 2 × 50 mg/kg/day + TET 3 mg/kg/day, day 0); 246 ± 3 grammes in data set [3] (moclobemide 2 × 50 mg/kg/day + TET 3 mg/kg/day, day 1); 249 ± 3 grammes in data set [3] (moclobemide 2 × 50 mg/kg/day + TET 3 mg/kg/day, day 2); 253 ± 4 grammes in data set [3] (moclobemide 2 × 50 mg/kg/day + TET 3 mg/kg/day, day 3); 216 ± 3 grammes in data set [3] (moclobemide 2 × 50 mg/kg/day + TET 3 mg/kg/day, day −3); 243 ± 4 grammes in data set [3] (moclobemide 2 × 100 mg/kg/day + TET 3 mg/kg/day, day 0). For the same molecule, the “Body weight (grammes ± esm)” value is recorded as 244 ± 4 grammes in data set [3] (moclobemide 2 × 100 mg/kg/day + TET 3 mg/kg/day, day 2); 244 ± 4 grammes in data set [3] (moclobemide 2 × 100 mg/kg/day + TET 3 mg/kg/day, day 3); 241 ± 5 grammes in data set [3] (setting [10]); 203 ± 5 grammes in data set [3] (moclobemide 2 × 100 mg/kg/day + TET 3 mg/kg/day, day −3). For the same molecule, the “Drop in weight between day 3 and day 4 induced by the TET” value in data set [3] (setting [9]) is reported as “prevents the drop in weight induced by the TET”. In addition, the Variation in percentage in data set [4] (50 mg/kg/day) is given as −0.01%; in data set [4] (100 mg/kg/day), −0.14%.

With (−)eburnamonine, the “Activity in the preventive protocol” value in data set [1] is reported as “active”.
